{
  "source": "patent US20110105515A1",
  "about": "“TARGETING THE ONCOPROTEIN NUCLEOPHOSMIN” (President and Fellows of Harvard College, priority 2007, published 2011)",
  "key": {"HL-60(TB)": {"tested_on": "HL-60(TB)", "settings": "HL-60(TB) (Leukemia), 48 hours, SRB"}, "RPMI-8226": {"tested_on": "RPMI-8226", "settings": "RPMI-8226 (Leukemia), 48 hours, SRB"}, "A549/ATCC": {"tested_on": "A549/ATCC", "settings": "A549/ATCC (Non-Small Cell Lung Cancer), 48 hours, SRB"}, "EKVX": {"tested_on": "EKVX", "settings": "EKVX (Non-Small Cell Lung Cancer), 48 hours, SRB"}, "HOP-62": {"tested_on": "HOP-62", "settings": "HOP-62 (Non-Small Cell Lung Cancer), 48 hours, SRB"}, "NCI-H23": {"tested_on": "NCI-H23", "settings": "NCI-H23 (Non-Small Cell Lung Cancer), 48 hours, SRB"}, "NCI-H460": {"tested_on": "NCI-H460", "settings": "NCI-H460 (Non-Small Cell Lung Cancer), 48 hours, SRB"}, "COLO 205": {"tested_on": "COLO 205", "settings": "COLO 205 (Colon Cancer), 48 hours, SRB"}, "HCT-116": {"tested_on": "HCT-116", "settings": "HCT-116 (Colon Cancer), 48 hours, SRB"}, "HCT-15": {"tested_on": "HCT-15", "settings": "HCT-15 (Colon Cancer), 48 hours, SRB"}, "HT29": {"tested_on": "HT29", "settings": "HT29 (Colon Cancer), 48 hours, SRB"}, "KM12": {"tested_on": "KM12", "settings": "KM12 (Colon Cancer), 48 hours, SRB"}, "SW-620": {"tested_on": "SW-620", "settings": "SW-620 (Colon Cancer), 48 hours, SRB"}, "SF-268": {"tested_on": "SF-268", "settings": "SF-268 (CNS Cancer), 48 hours, SRB"}, "SF-295": {"tested_on": "SF-295", "settings": "SF-295 (CNS Cancer), 48 hours, SRB"}, "SNB-19": {"tested_on": "SNB-19", "settings": "SNB-19 (CNS Cancer), 48 hours, SRB"}, "SNB-75": {"tested_on": "SNB-75", "settings": "SNB-75 (CNS Cancer), 48 hours, SRB"}, "LOX IMVI": {"tested_on": "LOX IMVI", "settings": "LOX IMVI (Melanoma), 48 hours, SRB"}, "MALME-3M": {"tested_on": "MALME-3M", "settings": "MALME-3M (Melanoma), 48 hours, SRB"}, "SK-MEL-2": {"tested_on": "SK-MEL-2", "settings": "SK-MEL-2 (Melanoma), 48 hours, SRB"}, "SK-MEL-28": {"tested_on": "SK-MEL-28", "settings": "SK-MEL-28 (Melanoma), 48 hours, SRB"}, "UACC62": {"tested_on": "UACC62", "settings": "UACC62 (Melanoma), 48 hours, SRB"}, "IGROV1": {"tested_on": "IGROV1", "settings": "IGROV1 (Ovarian Cancer), 48 hours, SRB"}, "OVCAR-3": {"tested_on": "OVCAR-3", "settings": "OVCAR-3 (Ovarian Cancer), 48 hours, SRB"}, "OVCAR-5": {"tested_on": "OVCAR-5", "settings": "OVCAR-5 (Ovarian Cancer), 48 hours, SRB"}, "786-0": {"tested_on": "786-0", "settings": "786-0 (Renal Cancer), 48 hours, SRB"}, "A498": {"tested_on": "A498", "settings": "A498 (Renal Cancer), 48 hours, SRB"}, "DU-145": {"tested_on": "DU-145", "settings": "DU-145 (Prostate Cancer), 48 hours, SRB"}, "MDA-MB-231/ATCC": {"tested_on": "MDA-MB-231/ATCC", "settings": "MDA-MB-231/ATCC (Breast Cancer), 48 hours, SRB"}, "HS578T": {"tested_on": "HS578T", "settings": "HS578T (Breast Cancer), 48 hours, SRB"}, "MDA-MB-435": {"tested_on": "MDA-MB-435", "settings": "MDA-MB-435 (Breast Cancer), 48 hours, SRB"}},
  "data": [
    {"smiles": "[2H]On1c2c(c3ccc4c(c31)C=CC(C)(C)O4)C(OC([2H])([2H])[2H])[C@@]13NC(=O)C4(CCCN4C1=O)CC3C2(C)C", "note": "(stereo partly shown) [Deuterated Methanol Adduct]", "values": [
      {"measurement": "TGI", "setting": "HL-60(TB)", "result": 1450, "unit": "nM"},
      {"measurement": "TGI", "setting": "RPMI-8226", "result": 298, "unit": "nM"},
      {"measurement": "TGI", "setting": "A549/ATCC", "result": 2990, "unit": "nM"},
      {"measurement": "TGI", "setting": "EKVX", "result": 1970, "unit": "nM"},
      {"measurement": "TGI", "setting": "HOP-62", "result": 7030, "unit": "nM"},
      {"measurement": "TGI", "setting": "NCI-H23", "result": 2430, "unit": "nM"},
      {"measurement": "TGI", "setting": "NCI-H460", "result": 3600, "unit": "nM"},
      {"measurement": "TGI", "setting": "COLO 205", "result": 1450, "unit": "nM"},
      {"measurement": "TGI", "setting": "HCT-116", "result": 1970, "unit": "nM"},
      {"measurement": "TGI", "setting": "HCT-15", "result": 1770, "unit": "nM"},
      {"measurement": "TGI", "setting": "HT29", "result": 3680, "unit": "nM"},
      {"measurement": "TGI", "setting": "KM12", "result": 2520, "unit": "nM"},
      {"measurement": "TGI", "setting": "SW-620", "result": 1540, "unit": "nM"},
      {"measurement": "TGI", "setting": "SF-268", "result": 3010, "unit": "nM"},
      {"measurement": "TGI", "setting": "SF-295", "result": 2730, "unit": "nM"},
      {"measurement": "TGI", "setting": "SNB-19", "result": 2310, "unit": "nM"},
      {"measurement": "TGI", "setting": "SNB-75", "result": 1270, "unit": "nM"},
      {"measurement": "TGI", "setting": "LOX IMVI", "result": 2140, "unit": "nM"},
      {"measurement": "TGI", "setting": "MALME-3M", "result": 1560, "unit": "nM"},
      {"measurement": "TGI", "setting": "SK-MEL-2", "result": 2280, "unit": "nM"},
      {"measurement": "TGI", "setting": "SK-MEL-28", "result": 1820, "unit": "nM"},
      {"measurement": "TGI", "setting": "UACC62", "result": 1920, "unit": "nM"},
      {"measurement": "TGI", "setting": "IGROV1", "result": 2040, "unit": "nM"},
      {"measurement": "TGI", "setting": "OVCAR-3", "result": 1810, "unit": "nM"},
      {"measurement": "TGI", "setting": "OVCAR-5", "result": 1910, "unit": "nM"},
      {"measurement": "TGI", "setting": "786-0", "result": 2460, "unit": "nM"},
      {"measurement": "TGI", "setting": "A498", "result": 2220, "unit": "nM"},
      {"measurement": "TGI", "setting": "DU-145", "result": 3120, "unit": "nM"},
      {"measurement": "TGI", "setting": "MDA-MB-231/ATCC", "result": 1830, "unit": "nM"},
      {"measurement": "TGI", "setting": "HS578T", "result": 2170, "unit": "nM"},
      {"measurement": "TGI", "setting": "MDA-MB-435", "result": 1770, "unit": "nM"}
    ]}
  ]
}
